The values that follow come from PubChem BioAssay AID179 (DTP/NCI, 2004).

Molecules are shown by their SMILES. pEC50, pIC50: −log10 of the molar value. Calls of active or inactive are those of the source.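 Rule for the calls: active = compounds giving half or more protection of infected cells from virus-caused growth loss, again on retest; inactive = the rest.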

For this assay, the system named is CEM cells HIV-1 protection, formazan growth assay. Put plainly: NCI AIDS Antiviral Assay. Particulars: for pIC50: measured here: growth of uninfected CEM cells. The gist of the method:
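Five concentrations of each compound were applied to infected and uninfected human CEM cells. Protection from HIV-1 was judged from growth measured with a soluble formazan assay.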

The term pEC50 denotes the negative decadic logarithm of the EC50, by convention in mol/L. The pIC50 is the IC50 on a negative log10 scale, so that one unit is a factor of ten. `COc1ccc(C(=O)C(C(=O)CC(=O)Nc2cccc(C(F)(F)F)c2)c2ccc(OC)cc2)cc1` (stereo not given): the pEC50 is less than 4.83 and the pIC50 is less than 4.83.

In the case of `CCOP(=O)(OCC)C(Nc1ccc(Cl)cc1)c1ccc(F)cc1` (stereo not given), the result was inactive.

For `Cc1cccc(C)c1NC(=O)C1=NC(=S)NC(c2ccccc2)C1c1nc2ccccc2s1` (stereo not given), the result was inactive.

For the molecule `CCCCCCCCCCCCCCCCCC(=O)OCC(O)CO` (stereo not given), the pEC50 is less than 5.68 and the pIC50 was less than 5.68.

`CCC1C2CC3C4N(C)c5ccccc5C45CC(C2C5O)N3C1O` (stereo not given): the result was inactive.

With `c1ccc(-c2csc3[n+]2CCN3)cc1`, the pEC50 was less than 3.70 and the pIC50 is 3.90.

With `COc1ccc2c(c1)C1Oc3ccccc3CC1CO2` (stereo not given), the pEC50 is less than 3.70 and the pIC50 is 4.28.

For `Cc1nc2c(=O)[nH]cnc2o1`, the pEC50 was less than 3.24 and the pIC50 is less than 3.24.

Regarding `CCOC(=O)c1cc(C)nc2c1c(=O)n(-c1ccccc1)c(=O)n2CCCCN1CCN(c2ncccn2)CC1`, the pEC50 is less than 3.70 and the pIC50 is 3.97.

On to `COC(=O)C1[C@@H](C(=O)OC)C12C=Cc1ccccc1C=C2` (stereo not given in full), for which the pEC50 was less than 3.70 and the pIC50 was less than 3.70.

As for `Cn1c(=N)c2cnn(-c3ccccc3)c2n(C)c1=O`, the pEC50 was less than 3.31 and the pIC50 is less than 3.31.

For the molecule `Cc1cccc2c(N)c3cccc(C(=O)NCCNCCN)c3nc12`, the pEC50 is less than 6.70 and the pIC50 is 6.96.

As to `CN(C)c1ncnc2c1Cc1ccccc1C(=O)N2C`, the pEC50 is 4.22 and the pIC50 is 3.39.

Take `CC1(C)CC(=O)C(CC2C(=O)c3ccccc3C2=O)C(=O)C1C(=O)C(=O)Nc1cccc2ccc(O)cc12` (stereo not given): the pEC50 is less than 4.29 and the negative logarithm of the IC50 (pIC50) was less than 4.29.

Consider `N#CC1(C#N)NC(c2ccccc2)C(C#N)(C#N)NC1c1ccccc1` (stereo not given), for which the pEC50 was less than 3.70 and the negative-log IC50 (pIC50) is less than 3.70.

Take `O=C(SSC(=O)c1ccccc1)c1ccccc1`: the pEC50 is less than 3.70 and the pIC50 was 4.65.

Take `[B-][N+]1(C)CC[N+]([B-])(C)CC1` (stereo not given): the pEC50 was less than 3.70 and the pIC50 is less than 3.70.

In the case of `CCC(Oc1ccc(OC)c2ccccc(=O)c12)C(=O)O` (stereo not given), the outcome was inactive.

In the case of `CN1N(c2ccccc2)C(=O)C2=NC=C(C(=O)c3ccccc3)C(=N)C21C` (stereo not given), the pEC50 was less than 3.70 and the pIC50 was less than 3.70.

Consider `COC(=O)CP(=O)(OC)OCC(F)(F)F` (stereo not given), for which the pEC50 is less than 3.00 and the pIC50 is 3.08.

As to `CCCc1onc(CCC(=O)N(Cc2ccccc2)Cc2ccccc2)c1CC`, the result was inactive.

Regarding `C=CC1CN2CCC1CC2C(=O)c1ccnc2ccccc12` (stereo not given), the pEC50 is less than 3.70 and the pIC50 was 4.01.

As to `C[C@@H]1OC2(O)[C@@H]3CCCN3C(=O)N(Cc3ccccc3)N2C1=O` (stereo not given in full), the pEC50 is less than 3.70 and the pIC50 is less than 3.70.

For the molecule `Cc1c(Cl)cccc1NC(=O)C(=O)C1C(=O)CC(C)(C)CC1=O`, the pEC50 was less than 3.13 and the pIC50 is less than 3.13.

Regarding `COC(=O)CCNc1c2ccccc2nc2cccc([N+](=O)[O-])c12`, the pEC50 is less than 6.70 and the pIC50 was 7.10.

Take `C=C(CC1CCCS(=O)(=O)C1)S(=O)(=O)c1ccc(C)cc1` (stereo not given): the pEC50 is less than 3.70 and the pIC50 is less than 3.70.

As for `COC(=O)/C=C(/C(=O)OC)c1c(C)cc2c(C)cc(C)cc(C)c1-2`, the pEC50 is less than 3.70 and the pIC50 was 4.97.

For the molecule `Cc1cc(C#N)c(Nc2c(C)cccc2[N+](=O)[O-])s1`, the pEC50 is less than 3.70 and the pIC50 is 3.80.

Take `COC(=O)Cc1ccc2c(cnn2-c2ccccc2)c1OC`: the pEC50 was less than 3.70 and the negative-log IC50 (pIC50) was 4.05.

`CC1N=C(c2ccccc2)OC1=O` (stereo not given): the pEC50 was less than 3.70 and the pIC50 is less than 3.70.

`CN(C)c1ccc(/C=C/c2ccnc3c2ccc2ccccc23)cc1`: the pEC50 is less than 4.65 and the pIC50 is 4.87.

As to `O=C1NC2(CCCCC2)C(OCCO)C12CCCCC2` (stereo not given), the pEC50 is less than 3.50 and the pIC50 is less than 3.50.

As to `C=C1N(C=O)C(C)(C)N(O)C1(C)C`, the pEC50 is less than 3.70 and the negative logarithm of the IC50 (pIC50) is less than 3.70.

As to `Cc1c(C(=O)C/C(=N/NC(=O)C[n+]2ccccc2)C(=O)Nc2ccccc2)[n+](=O)c2ccccc2n1O`, the pEC50 was less than 4.75 and the pIC50 is less than 4.75.

For `Cc1coc(C)c1C(=S)Nc1ccc(Cl)c(C(=O)OC(C)C)c1`, the pEC50 was 6.55 and the pIC50 was 4.42.

Take `O=C(O)CN1C(=O)CSC1=S`: the pEC50 is less than 2.89 and the pIC50 is 3.10.

Consider `CCN=C1Nc2ccccc2-n2c(nn3nc4ccccc4c23)N1CC`, for which the negative-log EC50 (pEC50) is 5.27 and the pIC50 is less than 3.70.

Regarding `N#Cc1c(N2CCCC2)ncn(-c2ccccc2)c1=S`, the pEC50 is less than 3.70 and the pIC50 was less than 3.70.

Turning to `Cc1c(Cc2cc(C(C)(C)C)c(O)c(C(C)(C)C)c2)c(C)c(Cc2cc(C(C)(C)C)c(O)c(C(C)(C)C)c2)c(C)c1Cc1cc(C(C)(C)C)c(O)c(C(C)(C)C)c1`, the outcome was inactive.

On to `OCC(O)C(Cl)CCl` (stereo not given), for which the pEC50 was less than 3.70 and the pIC50 was less than 3.70.

Take `Cc1ccc(Nc2nc3c(s2)C(=O)c2ccccc2C3=O)cc1`: the pEC50 is less than 4.79 and the pIC50 is 5.21.

With `NC(=O)C1(c2ccccc2)Nc2ccccc2S1` (stereo not given), the pEC50 was less than 3.01 and the pIC50 is 3.99.

Turning to `Cc1cnc(NCCCN(C)C)c2c1[nH]c1ccc3ccccc3c12`, the pEC50 was less than 5.70 and the pIC50 was 6.50.

Consider `O=c1ccn([C@@H]2C[C@H](CO)[C@H](O)C2)c(=O)[nH]1`, for which the pEC50 was less than 2.96 and the pIC50 is less than 2.96.

As for `COc1c(Br)cc2ccccc2c1-c1c(OC)c(Br)cc2ccccc12`, the pEC50 is 4.76 and the negative logarithm of the IC50 (pIC50) is less than 4.00.

For `OCC1C(O)[C@@H]2OC3(CCCC3)O[C@@H]2CN1OC/C=C/c1ccccc1` (stereo not given in full), the pEC50 is less than 3.70 and the pIC50 is 3.84.

Turning to `CN1CCN(CCSSCCN2CCN(C)CC2)CC1`, the pEC50 is less than 3.70 and the pIC50 is less than 3.70.

With `C/C(=N\NC(N)=S)C(CN(CC(C)C)CC(C)C)C(=O)Nc1ccc(C)cc1C` (stereo not given), the pEC50 is less than 4.07 and the pIC50 is less than 4.07.

For the molecule `Cc1ccc(OC(=O)N2C/C(=C\c3ccccc3)C(=O)/C(=C/c3ccccc3)C2)cc1`, the outcome was inactive.

Consider `O=C(CC1(O)C(=O)Nc2ccc(Br)cc21)c1ccc(Cl)cc1Cl` (stereo not given), for which the pEC50 was less than 3.79 and the pIC50 is 4.02.

Take `CC1=Nc2nc(=NCCCN(C)C)nc3cccc(n23)N1`: the pEC50 was less than 3.70 and the pIC50 is less than 3.70.

For the molecule `CCn1c(=O)c2c3ccc(O)cc3oc2c2ccc(O)cc21`, the pEC50 was less than 3.70 and the pIC50 is 4.05.

In the case of `N#Cc1cc2c(cc1C#N)/C(=N\c1cccc(N)n1)N=C2Nc1cccc(N)n1`, the pEC50 was less than 3.70 and the negative-log IC50 (pIC50) is 5.39.

`CN=c1nc2sc3c(c2c(NC(=S)NC)s1)CCCC3` had a negative logarithm of the EC50 (pEC50) of 4.11 and a pIC50 of less than 3.70.

Take `Cc1ccc(NC(=O)CCc2cc(C(C)(C)C)nc(NC#N)n2)cc1C`: the outcome was inactive.

Take `COC(=O)c1ccc(Oc2nc3ccc(C(F)(F)F)cc3nc2-c2ccccc2)cc1`: the pEC50 is less than 3.70 and the pIC50 is less than 3.70.

In the case of `O=C(Cc1ccccc1CCO)NCCc1ccccc1`, the pEC50 is less than 3.70 and the pIC50 is less than 3.70.

As to `COc1cccc(/C=N/[N-]C(N)=O)c1[O-].[Ni+2].[OH3+].c1cnc2c(c1)ccc1cccnc12`, the result was inactive.

`CCOC(=O)Cc1nc(Cl)c2c(C)c(C)sc2n1`: the pEC50 is less than 3.76 and the pIC50 was 4.41.

Turning to `CCOC(=O)C[P+](c1ccc(Cl)cc1)(c1ccc(Cl)cc1)c1ccc(Cl)cc1`, the pEC50 is less than 3.70 and the pIC50 is 4.73.

For `C=C[C@]1(C)CC[C@]2(C)C(CC[C@@]3(C)C2C[C@H](O)[C@H](O)[C@@]3(C)O)C1` (stereo not given in full), the pEC50 is less than 3.70 and the pIC50 is 3.85.

As to `O=C1c2ccccc2C(=O)c2c1ccc1c3ccccc3n(Cc3ccccc3)c21`, the result was inactive.

With `Cc1ccccc1C(C#N)/C(=N/NC(N)=S)C(=O)Nc1c(C)cccc1C` (stereo not given), the pEC50 was less than 3.61 and the pIC50 was 3.65.

On to `CCc1c(O)c2c([nH]c1=O)SC(C)(C)CC2=NCC(C)C`, for which the pEC50 was less than 4.94 and the negative logarithm of the IC50 (pIC50) was less than 4.94.

Regarding `NC(=O)CNC(=O)c1ccccc1SC(=O)CCCCC[n+]1ccccc1`, the pEC50 was 5.85 and the pIC50 was 4.42.

Consider `Cc1[nH]nc2c1NC(=O)OC2`, for which the pEC50 is less than 2.93 and the pIC50 is less than 2.93.

Turning to `CC(=O)C1CCC2C3CC4OCC5(CCC(O)CC45Br)C3CCC12C` (stereo not given), the pEC50 was less than 3.70 and the pIC50 was 4.39.

Turning to `O=c1[nH]c(=O)n(COCc2ccccc2)cc1Nc1ccc(Br)cc1`, the pEC50 was less than 3.70 and the pIC50 was less than 3.70.

In the case of `CCNCCNCC.[O-][Cl+3]([O-])([O-])[O-].[Pd+2].c1ccc(-c2ccccn2)nc1`, the pEC50 is less than 3.70 and the pIC50 is 4.51.

For the molecule `O=C1C[C@H](c2ccccc2)C2(C(=O)c3ccccc3C2=O)[C@@H](c2ccccc2)C1`, the pEC50 was 4.29 and the pIC50 was 3.99.

Take `O=S1(=O)OCCOS(=O)(=O)C1(Cl)Cl`: the pEC50 is less than 4.30 and the pIC50 is less than 4.30.

Regarding `CN1C(=O)c2cccc3cc([N+](=O)[O-])cc(c23)C1=O`, the pEC50 is less than 4.27 and the pIC50 is 4.99.

For the molecule `Cc1nc2ccccc2c(=O)n1NC(=O)c1ccc([N+](=O)[O-])cc1`, the pEC50 was less than 3.70 and the negative-log IC50 (pIC50) was less than 3.70.

In the case of `COc1cc(NCc2ccc3nc(OC)c(OC)nc3c2)cc(OC)c1OC`, the pEC50 is less than 3.70 and the negative-log IC50 (pIC50) is less than 3.70.

Take `O=C(Nn1c(-c2ccccc2)nc2ccccc2c1=O)c1ccccn1`: the pEC50 is less than 3.70 and the pIC50 is 3.91.
